Experimental data: patent US8575156B2, “Cyclic inhibitors of 11β-hydroxysteroid dehydrogenase 1” (Vitae Pharmaceuticals, Inc., priority 2007, dated 2013)

Target: 11β-HSD1 (Homo sapiens, UniProt P28845)
Assay: biochemical
Details: for IC50: IC50 Range, Biological Test Example 1, microsomes from CHO cells overexpressing human 11β-HSD1; for inhibition at 0.1111 µM: read-out: Average % inhibition at 111.1 nM, Biological Test Example 1, 111.1 nM compound; for inhibition at 0.1 µM: read-out: Average % inhibition at 100 nM, Biological Test Example 1, 100 nM compound

Chain of 11β-HSD1 (P28845 whole entry): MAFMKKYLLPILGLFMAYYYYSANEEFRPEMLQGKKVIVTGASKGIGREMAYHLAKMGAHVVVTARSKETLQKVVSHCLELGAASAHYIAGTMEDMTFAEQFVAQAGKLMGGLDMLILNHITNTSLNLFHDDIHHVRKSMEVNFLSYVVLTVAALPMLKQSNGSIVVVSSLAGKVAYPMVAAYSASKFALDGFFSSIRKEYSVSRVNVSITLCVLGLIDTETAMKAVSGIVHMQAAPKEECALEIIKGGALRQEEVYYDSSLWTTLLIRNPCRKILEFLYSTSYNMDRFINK

Structure (SMILES): CC1(c2ccccc2)CCN(c2cccc(-c3ccccc3S(C)(=O)=O)c2)C(=O)O1 (stereo not shown) [EXAMPLE 15, 6-methyl-3-(2′-(methylsulfonyl)biphenyl-3-yl)-6-phenyl-1,3-oxazinan-2-one]
- IC50: 100 to 1000 nM
- inhibition at 0.1111 µM: 38.5%

Structure (SMILES): CC1(c2ccccc2)CCN(c2cccc(-c3ccc(S(=O)(=O)N4CCCC4)cc3)c2)C(=O)O1 (stereo not shown) [EXAMPLE 16, 6-methyl-6-phenyl-3-(4′-(pyrrolidin-1-ylsulfonyl)biphenyl-3-yl)-1,3-oxazinan-2-one]
- IC50: 100 to 1000 nM
- inhibition at 0.1111 µM: 35.7%

Structure (SMILES): CC1(c2ccccc2)CCN(c2cccc(-c3cccc(C#N)c3)c2)C(=O)O1 (stereo not shown) [EXAMPLE 17, 3′-(6-methyl-2-oxo-6-phenyl-1,3-oxazinan-3-yl)biphenyl-3-carbonitrile]
- IC50: < 100 nM
- inhibition at 0.1111 µM: 58.8%

Structure (SMILES): COCCNC(=O)c1cccc(-c2cccc(N3CCC(C)(c4ccccc4)OC3=O)c2)c1 (stereo not shown) [EXAMPLE 18, N-(2-methoxyethyl)-3′-(6-methyl-2-oxo-6-phenyl-1,3-oxazinan-3-yl)biphenyl-3-carboxamide]
- IC50: 100 to 1000 nM
- inhibition at 0.1111 µM: 7.2%

Structure (SMILES): CC1(c2ccccc2)CCN(c2cccc(-c3ccc(CNS(C)(=O)=O)cc3)c2)C(=O)O1 (stereo not shown) [EXAMPLE 19, N-((3′-(6-methyl-2-oxo-6-phenyl-1,3-oxazinan-3-yl)biphenyl-4-yl)methyl)methanesulfonamide]
- IC50: 100 to 1000 nM
- inhibition at 0.1111 µM: 24%

Structure (SMILES): COc1ccccc1-c1cccc(N2CCC(C)(c3ccccc3)OC2=O)c1 (stereo not shown) [EXAMPLE 21, 3-(2′-methoxybiphenyl-3-yl)-6-methyl-6-phenyl-1,3-oxazinan-2-one]
- IC50: < 100 nM
- inhibition at 0.1111 µM: 76.7%

Structure (SMILES): CC1(c2ccccc2)CCN(c2cccc(-c3c(Cl)cccc3Cl)c2)C(=O)O1 (stereo not shown) [EXAMPLE 22, 3-(2′,6′-dichlorobiphenyl-3-yl)-6-methyl-6-phenyl-1,3-oxazinan-2-one]
- IC50: < 100 nM
- inhibition at 0.1111 µM: 88.9%

Structure (SMILES): CC1(c2ccccc2)CCN(c2cccc(-c3cccc(Cl)c3)c2)C(=O)O1 (stereo not shown) [EXAMPLE 24, 3-(3′-chlorobiphenyl-3-yl)-6-methyl-6-phenyl-1,3-oxazinan-2-one]
- IC50: < 100 nM
- inhibition at 0.1 µM: 93.4%
- inhibition at 0.1111 µM: 86%

Structure (SMILES): CC1(c2ccccc2)CCN(c2cccc(-c3cc(F)ccc3F)c2)C(=O)O1 (stereo not shown) [EXAMPLE 26, 3-(2′,5′-difluorobiphenyl-3-yl)-6-methyl-6-phenyl-1,3-oxazinan-2-one]
- IC50: < 100 nM
- inhibition at 0.1 µM: 88.2%
- inhibition at 0.1111 µM: 87%

Structure (SMILES): CC1(c2ccccc2)CCN(c2cccc(-c3cc(F)cc(F)c3)c2)C(=O)O1 (stereo not shown) [EXAMPLE 27, 3-(3′,5′-difluorobiphenyl-3-yl)-6-methyl-6-phenyl-1,3-oxazinan-2-one]
- IC50: < 100 nM
- inhibition at 0.1111 µM: 67%

Structure (SMILES): CC1(c2ccccc2)CCN(c2cccc(-c3cccc(NS(C)(=O)=O)c3)c2)C(=O)O1 (stereo not shown) [EXAMPLE 29, N-(3′-(6-methyl-2-oxo-6-phenyl-1,3-oxazinan-3-yl)biphenyl-3-yl)methanesulfonamide]
- IC50: 100 to 1000 nM
- inhibition at 0.1111 µM: 29.8%

Structure (SMILES): CNS(=O)(=O)c1cccc(-c2cccc(N3CCC(C)(c4ccccc4)OC3=O)c2)c1 (stereo not shown) [EXAMPLE 30, N-methyl-3′-(6-methyl-2-oxo-6-phenyl-1,3-oxazinan-3-yl)biphenyl-3-sulfonamide]
- IC50: 100 to 1000 nM
- inhibition at 0.1111 µM: 23.1%

Structure (SMILES): CNC(=O)c1cccc(-c2cccc(N3CCC(C)(c4ccccc4)OC3=O)c2)c1 (stereo not shown) [EXAMPLE 31, N-methyl-3′-(6-methyl-2-oxo-6-phenyl-1,3-oxazinan-3-yl)biphenyl-3-carboxamide]
- IC50: 100 to 1000 nM
- inhibition at 0.1111 µM: 27.5%

Structure (SMILES): CC1(c2ccccc2)CCN(c2cccc(-c3cccc(N)c3)c2)C(=O)O1 (stereo not shown) [EXAMPLE 32, 3-(3′-aminobiphenyl-3-yl)-6-methyl-6-phenyl-1,3-oxazinan-2-one]
- IC50: 100 to 1000 nM
- inhibition at 0.1111 µM: 46%

Structure (SMILES): CC1(c2ccccc2)CCN(c2cccc(-c3ccncc3)c2)C(=O)O1 (stereo not shown) [EXAMPLE 33, 6-methyl-6-phenyl-3-(3-(pyridin-4-yl)phenyl)-1,3-oxazinan-2-one]
- inhibition at 0.1111 µM: 37.1%
